Measured values from BindingDB's records for doi:10.3109/14756366.2011.651465 (Dumlupinar University, 2013).

Tests used:
Carbonic anhydrase 2 = Carbonic anhydrase 2 (Homo sapiens, UniProt P00918); test: CA Activity Assay; conditions: pH 7.4; 25 °C
Description: (§1) CA activity was assayed in inhibition studies by following the change in absorbance at 348 nm of 4-nitrophenylacetate (NPA) to 4-nitrophenylate ion over a period of 3 min at 25°C using a spectrophotometer according to the method described by Verpoorte et al. [Verpoorte et al., J. Biol. Chem., 242:4221-4229] The enzymatic reaction, in a total volume of 1 mL, contained 50 mM Tris-SO4 buffer (pH = 7.4), 3 mM 4-nitrophenylacetate and enzyme solution. A reference measurement was done by using the same cuvette without enzyme solution. The inhibitory effects of some synthesized sulfonamide derivatives on CA enzyme activity purified from human erythrocyte were tested on three samples at each concentration used.

Carbonic anhydrase 1 = Carbonic anhydrase 1 (Homo sapiens, UniProt P00915); test: CA Activity Assay; conditions: pH 7.4; 25 °C
Carbonic anhydrase 1, sequence (P00915 whole entry): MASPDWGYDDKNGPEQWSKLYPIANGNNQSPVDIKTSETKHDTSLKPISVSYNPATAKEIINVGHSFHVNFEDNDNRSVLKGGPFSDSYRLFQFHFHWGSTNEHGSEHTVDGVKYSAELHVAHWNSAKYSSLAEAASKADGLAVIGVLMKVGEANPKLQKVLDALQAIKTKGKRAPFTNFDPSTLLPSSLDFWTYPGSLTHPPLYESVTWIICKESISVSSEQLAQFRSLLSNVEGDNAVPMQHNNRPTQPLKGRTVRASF
Description: as §1

## NS(=O)(=O)c1ccc(NC(=O)c2nn(-c3cccc([N+](=O)[O-])c3)c(-c3ccccc3)c2C(=O)c2ccccc2)cc1 [4-benzoyl-1-(3-nitrophenyl)-5-phenyl-N-(4-sulfamoylphenyl)-1H-pyrazole-3-carboxamide (2)]
Carbonic anhydrase 2
  Ki: 337 nM
Carbonic anhydrase 1
  Ki: 215 nM

## CC(=O)/C(=N\Nc1cccc(-n2nc(C(=O)Nc3ccc(S(N)(=O)=O)cc3)c(C(=O)c3ccccc3)c2-c2ccccc2)c1)C(=O)c1ccccc1 [4-benzoyl-1-(3-((3-hydroxy-1-oxo-1-phenylbut-2-en-2-yl)diazenyl)phenyl)-5-phenyl-N-(4-sulfamoylphenyl)-1Hpyrazole-3-carboxamide (7)]
Carbonic anhydrase 2
  Ki: 166 nM
Carbonic anhydrase 1
  Ki: 521 nM

## CCOC(=O)/C(=N/Nc1cccc(-n2nc(C(=O)Nc3ccc(S(N)(=O)=O)cc3)c(C(=O)c3ccccc3)c2-c2ccccc2)c1)C(=O)c1ccccc1 [Ethyl-2-(2-(3-(4-benzoyl-5-phenyl-3-(4-sulfamoylphenylcarbamoyl)-1H-pyrazol-1-(phenyl)hydrazono)-3-oxo-3-phenylpropanoate (8)]
Carbonic anhydrase 2
  Ki: 8240 nM
Carbonic anhydrase 1
  Ki: 2900 nM

## [N-]=[N+]=Nc1cccc(-n2nc(C(=O)Nc3ccc(S(N)(=O)=O)cc3)c(C(=O)c3ccccc3)c2-c2ccccc2)c1 [1-(3-azidophenyl)-4-benzoyl-5-phenyl-N-(4-sulfamoylphenyl)-1H-pyrazole-3-carboxamide (9)]
Carbonic anhydrase 2
  Ki: 64 nM
Carbonic anhydrase 1
  Ki: 129 nM

## NS(=O)(=O)c1ccc(NC(=O)c2nn(-c3cccc(NN=C(C(=O)c4ccccc4)C(=O)c4ccccc4)c3)c(-c3ccccc3)c2C(=O)c2ccccc2)cc1 [4-benzoyl-1-(3-(2-(1,3-dioxo-1,3-diphenylpropan-2-ylidene)hydrazinyl)phenyl)-5-phenyl-N-(4-sulfamoylphenyl)-1H-pyrazole-3-carboxamide (6)]
Carbonic anhydrase 2
  Ki: 1940 nM
Carbonic anhydrase 1
  Ki: 4100 nM

## Nc1cccc(-n2nc(C(=O)Nc3ccc(S(N)(=O)=O)cc3)c(C(=O)c3ccccc3)c2-c2ccccc2)c1 [1-(3-aminophenyl)-4-benzoyl-5-phenyl-N-(4-sulfamoylphenyl)-1H-pyrazole-3-carboxamide (3)]
Carbonic anhydrase 2
  Ki: 55 nM
Carbonic anhydrase 1
  Ki: 108 nM

## CC(=O)C(=NNc1cccc(-n2nc(C(=O)Nc3ccc(S(N)(=O)=O)cc3)c(C(=O)c3ccccc3)c2-c2ccccc2)c1)C(C)=O [4-benzoyl-1-(3-((2-hydroxy-4-oxopent-2-en-3-yl)diazenyl)phenyl)-5-phenyl-N-(4-sulfamoylphenyl)-1H-pyrazole-3-carboxamide (5)]
Carbonic anhydrase 2
  Ki: 595 nM
Carbonic anhydrase 1
  Ki: 160 nM
